“And” between values parts separate entries of the source, which are not always exact repeats. Equal values may be shown once. Read-outs that look alike come from different tables or passages of the source.
Tests used:
CYP3A4 [1] = biological target: T1, CYP3A4 (Homo sapiens, UniProt P08684); conditions: cited from earlier work
[2] = cited from earlier work
[3] = cited from earlier work; remark: listed apart in the source
[4] = PBPK simulation of drug-drug interactions (Simcyp V19); design: species or system human; conditions: ratio of simulated to clinically observed AUC ratio; DDI of the respective line of Table S3
Description: Here, we provide three example applications where the available PBPK models were used to address questions relating to DDI assessment. […] Additional simulation methods are provided in Appendix S1.
All simulations, including the ones performed for the applications, were run using Version 19 of the Simcyp population-based PBPK simulator (Simcyp (Certara), Sheffield, UK) and unless stated otherwise, input parameters for all drugs are as specified (Supplementary Information Table S1). All simulations were run using ten virtual trials that were matched as closely as possible to the clinical study volunteers in terms of the number of subjects, their age, the proportion of males/females and according to the same study design.

CYP2B6 [5] = test: Metabolism by CYP2B6 (CLint, Vmax, Km, fm); type: in vitro ADME, human; conditions: fraction metabolised used in the PBPK model (artemether: without induction)
Description: (§1) In nearly all cases the fraction of systemic elimination metabolised by a given enzyme (fm) determined in vitro was unavailable in the literature.

[6] = PBPK input; ref artemether Colussi et al., 1999 11; atovaquone Rolan et al., 1997 14, Beerahee, 1999 16, Charman et al., 2020 1; azithromycin Pene Dumitrescu et al., 2013 21; DEAQ Winstanley et al., 1987 9; proguanil weighted mean Helsby et al., 1993 61, Wattanagoon et al., 1987 63; cited from earlier work
[7] = PBPK input; ref Charman et al., 2020 1; cited from earlier work
CYP3A4 [8] = biological target: T1, CYP3A4
Description: as §1

[9] = In vitro flags for victim and perpetrator properties conferring DDI liability; type: in vitro ADME, human; conditions: in vitro flag, mainly based on in vitro determinations
CYP2B6 [10] = system: CYP2B6; design: method as in Honda et al., 2011 12; conditions: ref Honda et al., 2011 12; cited from earlier work
[11] = PBPK input; ref Charman et al., 2020 1; cited from earlier work; remark: listed apart in the source
Caco-2 cells = conditions: cited from earlier work
CYP2C9 = conditions: ref mefloquine Karbwang et al., 1988 58; tafenoquine Charman et al., 2020 1; cited from earlier work
[12] = in vivo, cited from earlier work
[13] = 80 mg BID (Day 22-24) + rifampicin 600 mg QD (Days 1-24), HIV-infected, ref Lamorde et al., 2013 3
[14] = 80 mg BID (Days 13-15) + efavirenz 600 mg QD (Days 1-16), ref Huang et al., 2012 4
[15] = 80 mg SD (Day 1) + ketoconazole 400 mg SD (Day 1), 200 mg QD (Days 2-5), ref Lefevre et al., 2002 2

T1 sequence (P08684 whole entry): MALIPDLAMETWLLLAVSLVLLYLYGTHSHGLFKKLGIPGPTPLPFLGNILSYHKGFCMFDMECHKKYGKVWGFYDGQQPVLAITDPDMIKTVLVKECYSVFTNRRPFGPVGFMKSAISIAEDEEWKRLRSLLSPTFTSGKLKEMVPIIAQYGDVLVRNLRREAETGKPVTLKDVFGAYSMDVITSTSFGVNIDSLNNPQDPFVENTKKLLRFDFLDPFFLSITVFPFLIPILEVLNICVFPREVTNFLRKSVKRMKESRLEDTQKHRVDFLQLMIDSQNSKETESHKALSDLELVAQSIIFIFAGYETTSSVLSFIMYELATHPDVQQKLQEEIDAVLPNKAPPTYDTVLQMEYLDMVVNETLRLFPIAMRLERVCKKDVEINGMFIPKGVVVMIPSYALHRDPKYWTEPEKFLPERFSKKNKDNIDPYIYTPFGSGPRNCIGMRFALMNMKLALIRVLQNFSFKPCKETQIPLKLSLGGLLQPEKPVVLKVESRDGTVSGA

## CO[C@H]1O[C@@H]2O[C@@]3(C)CC[C@H]4[C@H](C)CC[C@@H]([C@H]1C)[C@@]24OO3 [Artemether, artemether]
CYP3A4 [1]
  CYP3A4 Vmax reported: 12.3 pmol/min/pmol
  Km: 8.24 µM
[2]; 80 mg BID (Day 3 PM), 60-72 h, ref Huang et al., 2012 8
  AUC Obs: 59.5 ng·h/mL
[2]; 80 mg BID (Day 3 PM), 62-72 h, ref Lefevre et al., 2002 7
  AUC Obs: 61.4 ng·h/mL
[2]; 80 mg BID (Day 3 PM), ref Huang et al., 2012 8
  Cmax Obs: 21.2 ng/mL
[2]; 80 mg BID (Day 3 PM), ref Lefevre et al., 2002 7
  Cmax Obs: 30.8 ng/mL
[2]; 80 mg SD, Indian, 0-inf, ref Lefevre et al., 2013 6
  AUC Obs: 408 ng·h/mL
[2]; 80 mg SD, Indian, ref Lefevre et al., 2013 6
  Cmax Obs: 113 ng/mL
[2]; 80 mg SD, 0-inf, ref Lefevre et al., 2002 5
  AUC Obs: 320 ng·h/mL
[2]; 80 mg SD, ref Lefevre et al., 2002 5
  Cmax Obs: 104 ng/mL
[3]; [13]
  AUC ratio Obs: 0.11
  Cmax ratio Obs: 0.18
[3]; [14]
  AUC ratio Obs: 0.49
  Cmax ratio Obs: 0.79
[3]; [15]
  AUC ratio Obs: 2.51
  Cmax ratio Obs: 2.24
[4]
  AUC ratios Sim/Obs: 1.00 and 1.08 and 1.15
CYP2B6 [5]
  fmCYP2B6: 47%
[6]
  B:P: 0.8
[7]
  fu: 0.038
CYP3A4 [8]
  fmCYP3A4: 53%
[9]
  Risk as a perpetrator: CYP2B6 inducer
  Risk as a victim: Substrate of CYP2B6 and CYP3A4
CYP2B6 [10]
  CYP2B6 Vmax reported: 17.9 pmol/min/pmol
  Km: 1.95 µM
[11]
  Log P: 3.7
Caco-2 cells; calibrated against propranolol, plasma as medium for atovaquone and piperaquine, ref Charman et al., 2020 1
  Caco-2 (Papp A-B): 42.7 10-6 cm/s

## OC(c1cc(C(F)(F)F)nc2c(C(F)(F)F)cccc12)C1CCCCN1 (stereo not shown) [Mefloquine, mefloquine]
[2]; in vivo, 250 mg
  AUC Obs: 116000 ng·h/mL
  Cmax Obs: 310 ng/mL
[2]; in vivo, 750 mg
  AUC Obs: 393500 ng·h/mL
[2]; in vivo, 1000 mg
  AUC Obs: 516000 ng·h/mL
  Cmax Obs: 960 ng/mL
[2]; in vivo, 1500 mg
  Cmax Obs: 1440 ng/mL
CYP3A4 [8]
  fmCYP3A4: 95%
CYP3A4 [8]; microsomes
  CLint CYP3A4: 0.168 µL/min/pmol
[9]
  Risk as a victim: Substrate of CYP3A4
Caco-2 cells; Caco-2
  Caco-2 (Papp A-B): 66 10-6 cm/s
CYP2C9
  Ki: 260 µM
[12]; po
  CL PO: 2.09 L/h
[12]
  CL renal: 0.07 L/h
